# Reference: patent publication US9926297B2, “Bicyclic AZA compounds as muscarinic M1 receptor and/or M4 receptor agonists” (Heptares Therapeutics Limited, priority 2014, dated 2018)
# Columns and labels:
# [1] = molecular target: T1, human muscarinic M2 receptor (Homo sapiens, UniProt P08172); test: Alphascreen Surefire phospho-ERK1/2 functional assay, M2; details: for Emax: CHO, read-out: % Emax cf. ACh, M2, CHO cells stably expressing human M2, relative to ACh
# T1 sequence (P08172 1-466): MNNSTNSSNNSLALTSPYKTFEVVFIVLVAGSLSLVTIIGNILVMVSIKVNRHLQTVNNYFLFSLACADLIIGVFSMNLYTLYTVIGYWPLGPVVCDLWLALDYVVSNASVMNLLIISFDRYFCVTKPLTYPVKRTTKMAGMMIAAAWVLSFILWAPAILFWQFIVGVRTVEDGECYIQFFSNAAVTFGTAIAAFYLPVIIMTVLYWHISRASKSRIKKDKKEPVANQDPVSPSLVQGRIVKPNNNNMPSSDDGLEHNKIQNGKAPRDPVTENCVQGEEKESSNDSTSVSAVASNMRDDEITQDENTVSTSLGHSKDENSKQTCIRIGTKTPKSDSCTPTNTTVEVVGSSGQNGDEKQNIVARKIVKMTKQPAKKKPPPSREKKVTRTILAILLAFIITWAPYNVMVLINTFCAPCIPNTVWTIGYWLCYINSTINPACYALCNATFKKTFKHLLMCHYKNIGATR
# [2] = molecular target: T2, human muscarinic M4 receptor (Homo sapiens, UniProt P08173); test: Alphascreen Surefire phospho-ERK1/2 functional assay, M4; format: cell-based; details: for EC50: CHO cells stably expressing human M4, phospho-ERK1/2, * = variable results, read-out: pEC50 M4 (converted); for Emax: CHO, read-out: % Emax cf. ACh, M4, CHO cells stably expressing human M4, relative to ACh
# T2 construct: expressed in transfected cells
# T2 sequence (P08173 1-479): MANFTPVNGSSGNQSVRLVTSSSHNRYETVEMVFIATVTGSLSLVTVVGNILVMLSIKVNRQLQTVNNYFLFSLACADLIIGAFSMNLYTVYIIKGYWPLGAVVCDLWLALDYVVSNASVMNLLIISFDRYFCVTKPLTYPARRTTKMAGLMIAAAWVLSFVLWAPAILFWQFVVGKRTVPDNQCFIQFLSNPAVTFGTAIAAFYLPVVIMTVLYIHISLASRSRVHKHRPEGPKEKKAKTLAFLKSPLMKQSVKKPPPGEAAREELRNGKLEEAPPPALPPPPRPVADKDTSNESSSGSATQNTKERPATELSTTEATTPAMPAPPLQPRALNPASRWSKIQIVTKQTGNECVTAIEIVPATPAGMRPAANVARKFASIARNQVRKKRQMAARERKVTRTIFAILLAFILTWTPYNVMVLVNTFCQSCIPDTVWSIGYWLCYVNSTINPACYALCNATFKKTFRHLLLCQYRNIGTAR
# [3] = molecular target: human muscarinic M3 receptor (Homo sapiens, UniProt P20309); test: Alphascreen Surefire phospho-ERK1/2 functional assay, M3; details: for Emax: CHO, read-out: % Emax cf. ACh, M3, CHO cells stably expressing human M3, relative to ACh; for EC50: pEC50 M3, CHO cells stably expressing human M3, phospho-ERK1/2, * = variable results
# Sequence of human muscarinic M3 receptor (P20309 whole entry): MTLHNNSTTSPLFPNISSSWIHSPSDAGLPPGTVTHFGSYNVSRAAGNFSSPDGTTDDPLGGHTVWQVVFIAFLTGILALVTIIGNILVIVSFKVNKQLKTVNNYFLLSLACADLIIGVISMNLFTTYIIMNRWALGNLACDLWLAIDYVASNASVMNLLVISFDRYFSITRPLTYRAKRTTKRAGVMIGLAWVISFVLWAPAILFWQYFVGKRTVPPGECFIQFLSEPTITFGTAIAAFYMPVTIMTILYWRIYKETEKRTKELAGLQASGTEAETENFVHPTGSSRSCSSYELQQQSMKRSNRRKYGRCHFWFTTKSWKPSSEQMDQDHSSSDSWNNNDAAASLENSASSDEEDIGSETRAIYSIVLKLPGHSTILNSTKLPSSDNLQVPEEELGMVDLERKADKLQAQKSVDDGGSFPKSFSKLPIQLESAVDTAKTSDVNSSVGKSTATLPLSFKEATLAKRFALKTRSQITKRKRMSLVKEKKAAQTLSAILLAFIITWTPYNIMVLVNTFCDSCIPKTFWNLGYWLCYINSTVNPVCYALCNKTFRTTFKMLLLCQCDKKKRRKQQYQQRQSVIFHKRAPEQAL
# [4] = molecular target: T3, human muscarinic M1 receptor (Homo sapiens, UniProt P11229); test: Alphascreen Surefire phospho-ERK1/2 functional assay, M1; format: cell-based; details: for EC50: CHO cells stably expressing human M1, phospho-ERK1/2, * = variable results, read-out: pEC50 M1 (converted); for Emax: CHO, read-out: % Emax cf. ACh, M1, CHO cells stably expressing human M1, relative to ACh
# T3 sequence (P11229 1-460): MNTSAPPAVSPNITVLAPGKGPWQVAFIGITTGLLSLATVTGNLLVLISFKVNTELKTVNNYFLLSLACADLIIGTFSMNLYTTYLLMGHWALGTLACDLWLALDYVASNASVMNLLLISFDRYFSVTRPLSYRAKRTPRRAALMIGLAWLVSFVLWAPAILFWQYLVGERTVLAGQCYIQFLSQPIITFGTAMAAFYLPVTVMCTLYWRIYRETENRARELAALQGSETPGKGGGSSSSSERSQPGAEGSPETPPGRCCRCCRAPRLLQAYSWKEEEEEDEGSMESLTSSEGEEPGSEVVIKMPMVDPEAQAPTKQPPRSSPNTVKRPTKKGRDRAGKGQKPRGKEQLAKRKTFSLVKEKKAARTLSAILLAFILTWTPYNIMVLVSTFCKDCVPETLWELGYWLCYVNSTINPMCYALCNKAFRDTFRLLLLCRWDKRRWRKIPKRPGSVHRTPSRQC
EC50 [1],Emax [1],EC50 [2],Emax [2],Emax [3],EC50 [3],EC50 [4],Emax [4],SMILES
> 20 µM,20%,0.00794 µM,112%,26%,> 20 µM,0.0631 µM,121%,"CCOC(=O)N1CCC2(CC(N3CCC(c4ncc[nH]4)CC3)C2)C1 (single isomer, unassigned) [1-1 Isomer 2, ethyl 2-[4-(1H-imidazol-2-yl)piperidin-1-yl]-6-azaspiro[3.4]octane-6-carboxylate]"
> 20 µM,6%,0.0251 µM,100%,4%,> 20 µM,0.251 µM,93%,"CCOC(=O)N1CCC2(CC(N3CCC(c4nc(Cl)c[nH]4)CC3)C2)C1 (single isomer, unassigned) [1-2 Isomer 2, ethyl 2-[4-(4-chloro-1H-imidazol-2-yl)piperidin-1-yl]-6-azaspiro[3.4]octane-6-carboxylate]"
> 20 µM,19%,0.02 µM,81%,2%,> 20 µM,0.126 µM,94%,"CCOC(=O)N1CCC2(CC(N3CCC(c4nc(Cl)c(Cl)[nH]4)CC3)C2)C1 (single isomer, unassigned) [1-5 Isomer 2, ethyl 2-[4-(4,5-dichloro-1H-imidazol-2-yl)piperidin-1-yl]-6-azaspiro[3.4]octane-6-carboxylate]"
> 20 µM,57%,0.0631 µM,71%,38%,0.0631 µM,1.26 µM,128%,"COC(=O)N1CCC2(CC(N3CCC(c4nccn4C)CC3)C2)C1 (single isomer, unassigned) [1-6 Isomer 2, methyl 2-[4-(1-methyl-1H-imidazol-2-yl)piperidin-1-yl]-6-azaspiro[3.4]octane-6-carboxylate]"
> 20 µM,15%,0.0251 µM,97%,22%,> 20 µM,0.158 µM,97%,"CCOC(=O)N1CCC2(CC(N3CCC(c4nccn4C)CC3)C2)C1 (single isomer, unassigned) [1-7 Isomer 2, ethyl 2-[4-(1-methyl-1H-imidazol-2-yl)piperidin-1-yl]-6-azaspiro[3.4]octane-6-carboxylate]"
> 20 µM,34%,0.0158 µM,98%,0%,> 20 µM,0.316 µM,76%,"CCOC(=O)N1CCC2(CC(N3CCC(c4nccn4C(=O)OCC)CC3)C2)C1 (single isomer, unassigned) [1-8 Isomer 2, ethyl 2-{4-[1-(ethoxycarbonyl)-1H-imidazol-2-yl]piperidin-1-yl}-6-azaspiro[3.4]octane-6-carboxylate]"
> 20 µM,11%,0.126 µM,128%,15%,> 20 µM,1 µM,85%,"CCOC(=O)N1CCC2(CC(N3CCC(c4nc(C)cn4C)CC3)C2)C1 (single isomer, unassigned) [1-12 Isomer 2, ethyl 2-[4-(1,4-dimethyl-1H-imidazol-2-yl)piperidin-1-yl]-6-azaspiro[3.4]octane-6-carboxylate]"
> 20 µM,27%,0.0501 µM,99%,5%,> 20 µM,0.631 µM,66%,"CCOC(=O)N1CCC2(CC(N3CCC(c4ncc(Cl)n4C)CC3)C2)C1 (single isomer, unassigned) [1-14 Isomer 2, ethyl 2-[4-(5-chloro-1-methyl-1H-imidazol-2-yl)piperidin-1-yl]-6-azaspiro[3.4]octane-6-carboxylate]"
> 20 µM,4%,,,6%,> 20 µM,0.1 µM,70%,"CCOC(=O)N1CCC2(CC(N3CCC(c4nc(C(F)(F)F)cn4C)CC3)C2)C1 (single isomer, unassigned) [1-15 Isomer 2, ethyl 2-{4-[1-methyl-4-(trifluoromethyl)-1H-imidazol-2-yl]piperidin-1-yl}-6-azaspiro[3.4]octane-6-carboxylate]"
7.94 µM,34%,0.158 µM,82%,1%,> 20 µM,1.58 µM,80%,"COC(=O)N1CCC2(CC(N3CCC(c4nc(Cl)c(Cl)n4C)CC3)C2)C1 (single isomer, unassigned) [1-16 Isomer 2, methyl 2-[4-(4,5-dichloro-1-methyl-1H-imidazol-2-yl)piperidin-1-yl]-6-azaspiro[3.4]octane-6-carboxylate]"
,,0.251 µM,31%,,,> 20 µM,7%,"CCOC(=O)N1CCC2(CC(N3CCC(N4CCCCC4)CC3)C2)C1 (single isomer, unassigned) [4-10 Isomer 2, ethyl 2-(1,4′-bipiperidin-1′-yl)-6-azaspiro[3.4]octane-6-carboxylate]"
,,0.2 µM,55%,,,> 20 µM,54%,"CCOC(=O)N1CCC2(CC(N3CCC(N4CCOCC4)CC3)C2)C1 (single isomer, unassigned) [4-11 Isomer 2, ethyl 2-[4-(morpholin-4-yl)piperidin-1-yl]-6-azaspiro[3.4]octane-6-carboxylate]"
,,0.158 µM,105%,,,1 µM,94%,"CCOC(=O)N1CCC2(CC(N3CCC(N4CCCC[C@@H]4C(=O)NC)CC3)C2)C1 (single isomer, unassigned) [4-16 Isomer 2]"
,,0.251 µM,106%,,,> 20 µM,27%,"CCOC(=O)N1CCC2(CC(N3CCC(N4CCCC[C@@H]4C(=O)N(C)C)CC3)C2)C1 (single isomer, unassigned) [4-17 Isomer 2]"
,,0.631 µM,79%,,,3.16 µM,76%,"CCOC(=O)N1CCC2(CC(N3CCC(N4CCCC[C@H]4C(=O)NC)CC3)C2)C1 (single isomer, unassigned) [4-18 Isomer 2]"
,,0.251 µM,38%,,,> 20 µM,7%,"CCOC(=O)N1CCC2(CC(N3CCC(C4CCCCN4C(=O)CC)CC3)C2)C1 (single isomer, unassigned) [4-19 Isomer 2, ethyl 2-(1-propanoyl-2,4′-bipiperidin-1′-yl)-6-azaspiro[3.4]octane-6-carboxylate]"
,,0.158 µM,34%,,,> 20 µM,11%,"CCOC(=O)N1CCC2(CC(N3CCC(C4CCCCN4C(=O)NC)CC3)C2)C1 (single isomer, unassigned) [4-20 Isomer 2, ethyl 2-[1-(methylcarbamoyl)-2,4′-bipiperidin-1′-yl]-6-azaspiro[3.4]octane-6-carboxylate]"
